Laboratory results reported in patent US8586591B2, “Aminopyrazine derivative and medicine” (Nippon Shinyaku Co., Ltd., priority 2009, dated 2013).
pIC50: −log10 of the molar value. Structures can show the parent of a compound that is named as a salt.

Tests used:
JAK2 tyrosine kinase = target: T1, JAK2 tyrosine kinase (Homo sapiens, UniProt O60674); assay: Test 1: inhibitory activity to JAK2 tyrosine kinase (ELISA); format: biochemical; details: 25 μM ATP in substrate solution, 30° C. for 1 hour, n=2
T1 construct: purchased Carnabioscience Co
T1 sequence (O60674 whole entry): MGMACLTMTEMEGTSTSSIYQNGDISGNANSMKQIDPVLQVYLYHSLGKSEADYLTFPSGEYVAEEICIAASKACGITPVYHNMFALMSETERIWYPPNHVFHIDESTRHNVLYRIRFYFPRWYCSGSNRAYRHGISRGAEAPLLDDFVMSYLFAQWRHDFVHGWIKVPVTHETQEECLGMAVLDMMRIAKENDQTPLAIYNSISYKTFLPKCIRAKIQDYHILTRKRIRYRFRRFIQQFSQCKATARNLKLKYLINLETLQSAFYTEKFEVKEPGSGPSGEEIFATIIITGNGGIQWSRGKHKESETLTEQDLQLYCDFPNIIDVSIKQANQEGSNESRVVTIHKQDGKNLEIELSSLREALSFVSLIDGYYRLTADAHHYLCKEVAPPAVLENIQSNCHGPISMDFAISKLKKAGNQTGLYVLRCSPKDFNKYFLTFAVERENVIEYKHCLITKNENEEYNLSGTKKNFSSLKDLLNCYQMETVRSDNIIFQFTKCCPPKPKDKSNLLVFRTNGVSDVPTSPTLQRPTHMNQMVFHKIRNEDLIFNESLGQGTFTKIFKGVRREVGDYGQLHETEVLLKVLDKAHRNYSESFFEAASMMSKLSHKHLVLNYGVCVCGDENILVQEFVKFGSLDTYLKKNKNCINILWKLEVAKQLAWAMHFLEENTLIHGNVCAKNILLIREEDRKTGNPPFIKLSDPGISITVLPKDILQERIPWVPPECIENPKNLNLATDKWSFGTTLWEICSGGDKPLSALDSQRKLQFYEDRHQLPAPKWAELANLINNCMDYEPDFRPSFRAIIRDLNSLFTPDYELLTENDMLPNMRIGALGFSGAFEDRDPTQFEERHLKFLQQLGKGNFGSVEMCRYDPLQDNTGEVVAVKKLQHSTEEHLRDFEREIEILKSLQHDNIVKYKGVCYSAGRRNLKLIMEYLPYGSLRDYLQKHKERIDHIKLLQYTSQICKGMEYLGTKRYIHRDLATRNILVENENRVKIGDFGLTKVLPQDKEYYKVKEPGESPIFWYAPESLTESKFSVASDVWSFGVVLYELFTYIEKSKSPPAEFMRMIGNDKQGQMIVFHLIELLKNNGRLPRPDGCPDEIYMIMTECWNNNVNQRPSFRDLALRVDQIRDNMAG
Experimental: Test 1: Test for inhibitory activity to JAK2 and JAK3 tyrosine kinase 1. Preparation of Test Material
The test material was dissolved in dimethylsulfoxide (DMSO) to be 10 mM, and further diluted with DMSO to be 100-fold concentrations for measurement (1000, 300, 100, 30, 10, 3, 1, 0.3, 0.1, 0.03, 0.01 μM). In addition, solutions diluted with an assay buffer up to 20 times were used as solutions of the test material. As a negative control, a solution of DMSO diluted 20 times with an assay buffer was used. As the assay buffer, 15 mM Tris-Cl (pH 7.5), 0.01 v/v % Tween-20, and 1 mM dithiothreitol were used.
2. Measurement of the Activities of JAK2 and JAK3 Tyrosine Kinases
The activity was determined by ELISA. The solution of the test material (10 μl each; n=2) was placed in a streptavidine-coated 96 well plate (DELFIA Strip Plate 8×12 wells; Perkin Elmer), to which 20 μl each of substrate solution (625 nM biotin-labeled peptide substrate, 25 μM ATP, 25 mM MgCl2, 15 mM Tris-Cl (pH 7.5), 0.01 v/v % Tween-20, and 1 mM dithiothreitol), was added and stirred. Finally, 20 μl each of JAK2 tyrosine kinase (Carnabioscience Co.) (diluted to 0.75 nM with assay buffer) or JAK3 tyrosine kinase (Carnabioscience Co.) (diluted to 0.75 nM with assay buffer) was added, stirred and allowed to stand at 30° C. for 1 hour. The plate was washed 4 times with a washing buffer (50 mM Tris-Cl, pH 7.5, 150 mM NaCl, 0.02 v/v % Tween-20), and then a blocking buffer (0.1% Bovine Serum Albumin, 50 mM Tris-Cl, pH 7.5, 150 mM NaCl, 0.02 v/v % Tween-20)(150 μl each) was added for blocking at 30° C. for 30 minutes. Blocking buffer was removed, and there was added 100 μl each of horse radish peroxidase-labeled anti-phosphorylated tyrosin kinase antibody (BD Bioscience Co.) (diluted 10,000 times with blocking buffer). The plate was incubated at 30° C. for 30 minutes and then washed 4 times with a washing buffer, and 100 μl each of 3,3′,5,5′-tetramethylbenzidine (Sigma-Aldrich Co.) was added to develop color for 10 minutes. 0.1 M sulfuric acid (100 μl each) was added to stop the reaction. The absorbance was measured by means of a micro-plate reader (BIO-RAD; Model 3550) at 450 nm.
3. Analysis of the Results of the Measurement
The measured absorbance was subjected to a non-linear regression analysis by means of a SAS system (SAS Institute Inc.), and the concentration (IC50) of the test material which inhibited 50% of the activity of each tyrosine kinase was estimated.

JAK3 tyrosine kinase = target: T2, JAK3 tyrosine kinase (Homo sapiens, UniProt P52333); assay: Test 1: inhibitory activity to JAK3 tyrosine kinase (ELISA); format: biochemical; details: 25 μM ATP in substrate solution, 30° C. for 1 hour, n=2
T2 construct: purchased Carnabioscience Co
T2 sequence (P52333 1-1124): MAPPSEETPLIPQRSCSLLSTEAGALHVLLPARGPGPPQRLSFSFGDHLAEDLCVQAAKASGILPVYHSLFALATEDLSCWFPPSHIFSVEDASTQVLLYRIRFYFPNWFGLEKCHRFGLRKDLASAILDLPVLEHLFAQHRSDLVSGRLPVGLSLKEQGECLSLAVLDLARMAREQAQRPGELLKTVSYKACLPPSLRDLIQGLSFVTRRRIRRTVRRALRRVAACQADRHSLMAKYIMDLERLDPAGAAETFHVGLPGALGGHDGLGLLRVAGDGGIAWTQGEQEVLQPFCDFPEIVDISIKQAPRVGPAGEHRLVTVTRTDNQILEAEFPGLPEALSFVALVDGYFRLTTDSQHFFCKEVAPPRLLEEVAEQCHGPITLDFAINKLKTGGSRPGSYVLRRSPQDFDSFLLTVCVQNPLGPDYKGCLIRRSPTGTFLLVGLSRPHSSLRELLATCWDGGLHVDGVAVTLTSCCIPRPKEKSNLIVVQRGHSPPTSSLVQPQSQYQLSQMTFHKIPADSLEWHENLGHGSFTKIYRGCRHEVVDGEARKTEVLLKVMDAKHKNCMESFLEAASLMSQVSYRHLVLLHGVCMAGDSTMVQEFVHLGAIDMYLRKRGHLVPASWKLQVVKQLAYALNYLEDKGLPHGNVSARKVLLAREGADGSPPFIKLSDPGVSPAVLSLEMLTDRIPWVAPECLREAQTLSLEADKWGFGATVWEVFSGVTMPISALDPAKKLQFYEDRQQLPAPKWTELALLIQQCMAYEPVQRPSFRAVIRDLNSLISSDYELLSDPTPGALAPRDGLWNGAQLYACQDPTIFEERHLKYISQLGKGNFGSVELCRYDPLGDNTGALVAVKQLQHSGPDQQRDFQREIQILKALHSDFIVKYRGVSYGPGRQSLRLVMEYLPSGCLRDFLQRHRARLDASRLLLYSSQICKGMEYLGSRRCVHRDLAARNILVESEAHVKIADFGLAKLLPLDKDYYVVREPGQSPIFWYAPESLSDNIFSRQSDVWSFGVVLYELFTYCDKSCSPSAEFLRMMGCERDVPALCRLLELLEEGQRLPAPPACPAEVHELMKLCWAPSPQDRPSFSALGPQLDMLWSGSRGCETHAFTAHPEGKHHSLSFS
How it was run: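 ELISA of JAK3 kinase activity with absorbance read at 450 nm. Compounds were tested from DMSO dilution series at 100-fold the measurement concentrations (1000–0.01 μM), diluted up to 20 times in assay buffer, against a DMSO negative control. IC50 was estimated by non-linear regression of absorbance.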

C[C@H](Nc1nc(Nc2cnccn2)cc(N2C[C@H](O)[C@@H](O)C2)n1)c1ccc(F)cc1 [Example 110, (3S,4S)-1-{2-[(S)-1-(4-Fluorophenyl)ethylamino]-6-(pyrazin-2-ylamino)pyrimidin-4-yl}pyrrolidin-3,4-diol]
pIC50 (JAK2 tyrosine kinase): 9.17
pIC50 (JAK3 tyrosine kinase): 7.36

C[C@H](Nc1cccc(Nc2cnccn2)n1)c1ccc(F)cc1 [Example 117, (S)—N^2-[1-(4-Fluorophenyl)ethyl]-N^6-(pyrazin-2-yl)pyridine-2,6-diamine dihydrochloride]
pIC50 (JAK2 tyrosine kinase): 8.57
pIC50 (JAK3 tyrosine kinase): 6.72

C[C@H](Nc1nc(Nc2cnccn2)cc(-c2cncc(C(N)=O)c2)n1)c1ccc(F)cc1 [Example 84, (S)-5-{2-[1-(4-Fluorophenyl)ethylamino]-6-(pyrazin-2-ylamino)pyrimidin-4-yl}nicotinamide]
pIC50 (JAK2 tyrosine kinase): 8.70
pIC50 (JAK3 tyrosine kinase): 6.77

C[C@H](Nc1cc(N2CCOCC2)cc(Nc2cnccn2)n1)c1ccc(F)cc1 [Example 39, (S)—N^2-[1-(4-Fluorophenyl)ethyl]-4-morpholine-N^6-(pyrazin-2-yl)pyridine-2,6-diamine]
pIC50 (JAK2 tyrosine kinase): 9.03
pIC50 (JAK3 tyrosine kinase): 7.05

Cc1cnc(Nc2cc(-c3cnn(C)c3)cc(N[C@@H](C)c3ccc(F)cc3)n2)cn1 [Example 214, (S)—N^2-[1-(4-Fluorophenyl)ethyl]-4-(1-methyl-1H-pyrazol-4-yl)-N^6-(5-methylpyrazin-2-yl)pyridine-2,6-diamine]
pIC50 (JAK2 tyrosine kinase): 8.26
pIC50 (JAK3 tyrosine kinase): 6.42

CC(=O)Nc1cc(Nc2cnccn2)nc(N[C@@H](C)c2ccc(F)cc2)c1 [Example 208, (S)—N-{2-[1-(4-Fluorophenyl)ethylamino]-6-(pyrazin-2-ylamino)pyridin-4-yl}acetamide]
pIC50 (JAK2 tyrosine kinase): 8.85
pIC50 (JAK3 tyrosine kinase): 7.00

C[C@H](Nc1nc(Nc2cnccn2)cc(-c2cccnc2)n1)c1ccc(F)cc1 [Example 32, (S)—N^2-[1-(4-Fluorophenyl)ethyl]-N^4-(pyrazin-2-yl)-6-(pyridin-3-yl)pyrimidine-2,4-diamine ½ maleate]
pIC50 (JAK2 tyrosine kinase): 9.30
pIC50 (JAK3 tyrosine kinase): 7.17

C[C@H](Nc1nc(Nc2cnccn2)cc(-c2ccc(C(N)=O)cc2)n1)c1ccc(F)cc1 [Example 80, (S)-4-{2-[1-(4-Fluorophenyl)ethylamino]-6-(pyrazin-2-ylamino)pyrimidin-4-yl}benzamide hydrochloride]
pIC50 (JAK2 tyrosine kinase): 8.96
pIC50 (JAK3 tyrosine kinase): 7.22

C[C@H](Nc1nc(Nc2cnccn2)cc(N2CCCC(O)C2)n1)c1ccc(F)cc1 (stereo partly drawn) [Example 73, 1-{2-[(S)-1-(4-Fluorophenyl)ethylamino]-6-(pyrazin-2-ylamino)pyrimidin-4-yl}piperidin-3-ol hydrochloride]
pIC50 (JAK2 tyrosine kinase): 8.89
pIC50 (JAK3 tyrosine kinase): 7.32

COC1CN(c2cc(Nc3cnccn3)nc(N[C@@H](C)c3ccc(F)cc3)n2)C1 [Example 183, (S)—N^2-[1-(4-Fluorophenyl)ethyl]-6-(3-methoxyazetidin-1-yl)-N^4-(pyrazin-2-yl)pyrimidine-2,4-diamine hydrochloride]
pIC50 (JAK2 tyrosine kinase): 8.74
pIC50 (JAK3 tyrosine kinase): 7.23

C[C@H](Nc1nc(Nc2cnccn2)cc(N2CC(O)(C(F)(F)F)C2)n1)c1ccc(F)cc1 [Example 192, (S)-1-{2-[1-(4-Fluorophenyl)ethylamino]-6-(pyrazin-2-ylamino)pyrimidin-4-yl}-3-(trifluoromethyl)azetidin-3-ol hydrochloride]
pIC50 (JAK2 tyrosine kinase): 8.72
pIC50 (JAK3 tyrosine kinase): 6.92

CC(=O)N[C@H]1CCN(c2cc(Nc3cnccn3)nc(N[C@@H](C)c3ccc(F)cc3)n2)C1 [Example 33, N-{(S)-1-[2-{[(S)-1-(4-Fluorophenyl)ethyl]amino}-6-(pyrazin-2-ylamino)pyrimidin-4-yl]pyrrolidin-3-yl}acetamide maleate]
pIC50 (JAK2 tyrosine kinase): 9.40
pIC50 (JAK3 tyrosine kinase): 7.52

COC1(C2CC2)CN(c2cc(Nc3cnccn3)nc(N[C@@H](C)c3ccc(F)cc3)c2)C1 [Example 211, (S)-4-(3-Cyclopropyl-3-methoxyazetidin-1-yl)-N^2-[1-(4-fluorophenyl)ethyl]-N^6-(pyrazin-2-yl)pyridine-2,6-diamine hydrochloride]
pIC50 (JAK2 tyrosine kinase): 8.25
pIC50 (JAK3 tyrosine kinase): 7.07

C[C@H](Nc1nc(NCCNS(C)(=O)=O)cc(Nc2cnccn2)n1)c1ccc(F)cc1 [Example 77, (S)—N-(2-{2-[1-(4-Fluorophenyl)ethylamino]-6-(pyrazin-2-ylamino)pyrimidin-4-ylamino}ethyl)methanesulfonamide hydrochloride]
pIC50 (JAK2 tyrosine kinase): 9.14
pIC50 (JAK3 tyrosine kinase): 7.43

C[C@H](Nc1nc(NCCN2CCCC2)cc(Nc2cnccn2)n1)c1ccc(F)cc1 [Example 96, (S)—N^2-[1-(4-Fluorophenyl)ethyl]-N^4-(pyrazin-2-yl)-N^6-[2-(pyrrolidin-1-yl)ethyl]pyrimidine-2,4,6-triamine]
pIC50 (JAK2 tyrosine kinase): 8.85
pIC50 (JAK3 tyrosine kinase): 7.48

C[C@H](Nc1nc(Nc2cnccn2)cc(N2CCC[C@H]2C(N)=O)n1)c1ccc(F)cc1 [Example 64, (S)-1-{2-[(S)-1-(4-Fluorophenyl)ethylamino]-6-(pyrazin-2-ylamino)pyrimidin-4-yl}pyrrolidin-2-carboxamide hydrochloride]
pIC50 (JAK2 tyrosine kinase): 8.15
pIC50 (JAK3 tyrosine kinase): 6.66

CC(=O)NCCNc1cc(Nc2cnccn2)nc(N[C@@H](C)c2ccc(F)cc2)n1 [Example 78, (S)—N-(2-{2-[1-(4-Fluorophenyl)ethylamino]-6-(pyrazin-2-ylamino)pyrimidin-4-ylamino}ethyl) acetamide hydrochloride]
pIC50 (JAK2 tyrosine kinase): 8.85
pIC50 (JAK3 tyrosine kinase): 7.46

C[C@H](Nc1nc(Nc2cnccn2)cc(-c2cncs2)n1)c1ccc(F)cc1 [Example 49, (S)—N^2-[1-(4-Fluorophenyl)ethyl]-N^4-(pyrazin-2-yl)-6-(thiazol-5-yl)pyrimidine-2,4-diamine]
pIC50 (JAK2 tyrosine kinase): 8.64
pIC50 (JAK3 tyrosine kinase): 6.77

C[C@H](Nc1nc(Nc2cnccn2)cc(-c2ccnc(F)c2)n1)c1ccc(F)cc1 [Example 93, (S)—N^2-[1-(4-Fluorophenyl)ethyl]-6-(2-fluoropyridin-4-yl)-N^4-(pyrazin-2-yl)pyrimidine-2,4-diamine]
pIC50 (JAK2 tyrosine kinase): 8.52
pIC50 (JAK3 tyrosine kinase): 6.66

C[C@H](Nc1nc(Nc2cnccn2)cc(N2CCCC2=O)n1)c1ccc(F)cc1 [Example 16, (S)-1-{2-[1-(4-Fluorophenyl)ethylamino]-6-(pyrazin-2-ylamino)pyrimidin-4-yl}pyrrolidin-2-one]
pIC50 (JAK2 tyrosine kinase): 8.10
pIC50 (JAK3 tyrosine kinase): 6.20

CNC(=O)C1CN(c2cc(Nc3cnccn3)nc(N[C@@H](C)c3ccc(F)cc3)n2)C1 [Example 174]
pIC50 (JAK2 tyrosine kinase): 9.00
pIC50 (JAK3 tyrosine kinase): 7.33
